Test results from patent US20100104524A1, “COSMETIC COMPOSITION FOR SKIN WHITENING COMPRISING ARCTIIN, ARCTIGENIN OR THE MIXTURE THEREOF AS ACTIVE” (priority 2007, published 2010).
Like-named read-outs stand apart in the source and are kept apart here.

Assays:
Format in all cases: cell-based, mice
[1] = system: B-16 melanoma (ATCC CRL 6323) cell line; assay: Melanin synthesis inhibition by forsythia suspensa active substances (IC50); conditions: for IC50: Mus musculus, B16, 120 h, read-out: Melanin synthesis inhibition IC50; for Melanin synthesis inhibition (in words): compared to other substances of Forsythia suspensa
Method: (§1) α-MSH, for an experiment for melanin synthesis inhibition, was dissolved in 10% DMSO (Dimethyl sulfoxide), and was used as 1 mM solution. B-16 melanoma (ATCC CRL 6323) cell line (derived from mice) was inoculated into a DMEM medium including 4.5 g/L of glucose, 10% serum, and 1% antibiotics, and was subcultured in 75[…] T-flask under 5% CO2 and at 37° C. The subcultured melanoma cell line was cultured in 75[…] T-flask for 24 hours, and was treated with 0.05% Trypsin containing 0.02% EDTA. Then, cells were separated, were inoculated in 75[…] T-flask, and were further cultured for 6 hours. Herein, the number of cells was 1×10^7 cells/flask. Then, a melanocyte-stimulating hormone was diluted in a DMEM medium to a final concentration 100[…]. Next, each of arctiin, arctigenin, matairesinol, oleanolic acid, betulinic acid, rutin, and ursolic acid was diluted in the DMEM medium to a final concentration of 10-1000 □/□ to carry out treatment of melanoma cells, and then, the cells were further cultured at 37° C. for 5 days. Next, the medium was obtained to measure absorbance at 475 nm, and through comparison of melanin synthesis, IC50 (□/□), that is, the density for inhibiting melanin synthesis by 50%, was calculated.

tyrosinase [2] = assay: Expression inhibition I of a melanin synthesis enzyme in melanocyte (tyrosinase band in gel); conditions: for Intensity of tyrosinase band: 100 □/□, 3 days culture, lower intensity = higher inhibition of tyrosinase biosynthesis, controls 123 (Control Exp 1) and 211 (Control Exp 2); for Inhibiting effect on biosynthesis of tyrosinase (in words): compared to Control Example 2 containing only a melanocyte stimulating hormone
Method: as §1
An experiment was carried out in the same manner as described in Experimental Example 1 except that each of arctiin, arctigenin, matairesinol, oleanolic acid, betulinic acid, rutin, and ursolic acid was added, and culture was further carried out for 3 days to obtain cells. Also, in order to compare the expression inhibition of a melanin synthesis enzyme, experiments on Control Example 1 containing no forsythia suspensa active substance and Control Example 2 containing a melanocyte stimulating hormone were carried out. Obtained cells were washed with sodium phosphate buffer two times, were treated with 0.1% triton X-100, and were reacted by a sonicator for 30 seconds. From the reaction solution, cell precipitate and supernatant were separated by using a high-speed centrifuge at 12,000 rpm for 30 minutes at 4° C. From the separated supernatant, protein was separated by using electrophoresis, and was reacted in a reaction solution containing 0.2% DOPA solution for about 8 hours. Then, the production of tyrosinase in gel was measured.

[3] = system: B-16 melanoma (ATCC CRL 6323) cell line; assay: Melanin synthesis inhibition (%) by arctiin, arctigenin and the mixture thereof; conditions: n = 3, 5 days
Method: The subcultured melanoma cell line was cultured in 75[…] T-flask for 24 hours, and was treated with 0.05% Trypsin containing 0.02% EDTA. Then, cells were separated, were inoculated in 75[…] T-flask, and were further cultured for 6 hours. Herein, the number of cells was 1×10^7 cells/flask. Then, a melanocyte-stimulating hormone was diluted in a DMEM medium to a final concentration 100[…]. Next, each of arctiin, arctigenin, matairesinol, oleanolic acid, betulinic acid, rutin, and ursolic acid was diluted in the DMEM medium to a final concentration of 10-1000 □/□ to carry out treatment of melanoma cells, and then, the cells were further cultured at 37° C. for 5 days. […] An experiment of melanin synthesis inhibition was carried out in the same manner as described in EXPERIMENTAL EXAMPLE 1, except the following processes. […] Next, the medium was obtained to measure absorbance at 475 nm, and melanin synthesis was compared. A melanin synthesis inhibition (%) was calculated according to Mathematical Formula 1, with a control value of cell cultures including only a melanocyte stimulating hormone. […] [formula]

[4] = system: NIH/3T3 (ATCC CRL 1658) cell line; assay: Cytotoxicity on fibroblast cell (MTT); conditions: for Cell viability (%): 12 hours, MTT
Method: On a fibroblast cell, toxicity of arctiin, arctigenin, a 1:3 mixture of arctiin and arctigenin, and a 3:1 mixture of arctiin and arctigenin prepared by Preparation Examples 1 and 2 was measured, respectively. NIH/3T3 (ATCC CRL 1658) cell line (derived from mice) as a fibroblast cell, which was purchased, was inoculated into a DMEM medium including 4.5 g/L of glucose, 10% serum, and 1% antibiotics, and was subcultured in 75[…] T-flask at 37° C. The subcultured cell line was cultured under 5% CO2 for 24 hours, and then it was treated with 0.05% Trypsin containing 0.02% EDTA. Then, cells were separated, were inoculated into 96-well-flask (1×10^4 cells/well) and stabilized through culture for 6 hours. To the cells, each of arctiin, arctigenin, a 1:3 mixture of arctiin and arctigenin, and a 3:1 mixture of arctiin and arctigenin was added as noted in Table 5, and culture was further carried out for 12 hours. After the culture, 10[…] of MTT (3-(4,5-dimethylthiazol-2-yl) 2,5-diphenyl tetrazolin bromide) solution (5[…]/□) was added in each well, and culture was carried out for 4 hours. Then, 100[…] of DMSO (Dimethyl sulfoxide) solution was added, and absorbance was measured at O.D. 570 nm to calculate the cell viability. […] Herein, the cell viability of 100% was based on the absorbance in the case of no additional substance.

tyrosinase [5] = assay: Expression inhibition II of a melanin synthesis enzyme from melanocyte (tyrosinase band in gel); conditions: 100 □/□ substance with melanocyte stimulating hormone 100; 3 days culture; controls 123 and 211
Method: The subcultured melanoma cell line was cultured in 75[…] T-flask for 24 hours, and was treated with 0.05% Trypsin containing 0.02% EDTA. Then, cells were separated, were inoculated in 75[…] T-flask, and were further cultured for 6 hours. Herein, the number of cells was 1×10^7 cells/flask. Then, a melanocyte-stimulating hormone was diluted in a DMEM medium to a final concentration 100[…]. Next, each of arctiin, arctigenin, matairesinol, oleanolic acid, betulinic acid, rutin, and ursolic acid was diluted in the DMEM medium to a final concentration of 10-1000 □/□ to carry out treatment of melanoma cells, and then, the cells were further cultured at 37° C. for 5 days. […] An expression inhibiting effect of a melanin synthesis enzyme from melanocyte, which can be achieved by arctiin, arctigenin, or the mixture thereof, was determined. An experiment was carried out in the same manner as described in Experimental Example 1 except that each of arctiin, arctigenin, a 1:3 mixture of arctiin and arctigenin, and a 3:1 mixture of arctiin and arctigenin prepared by Preparation Examples 1 and 2 was added and culture was further carried out for 3 days to obtain cells. […] And then, the production of tyrosinase was measured in electrophoresis gel.

[6] = α-MSH-stimulated B-16 melanoma, 5 days, medium absorbance at 475 nm

For C[C@@H]1O[C@@H](OC[C@H]2O[C@@H](Oc3c(-c4ccc(O)c(O)c4)oc4cc(O)cc(O)c4c3=O)[C@H](O)[C@@H](O)[C@@H]2O)[C@H](O)[C@H](O)[C@H]1O [Rutin], the IC50 [1] was under 500 µg/mL and the “Intensity of tyrosinase band” value (tyrosinase [2]) was 150.
In the case of CC1(C)CC[C@]2(C(=O)O)CC[C@]3(C)C(=CC[C@@H]4[C@@]5(C)CC[C@H](O)C(C)(C)[C@@H]5CC[C@]43C)[C@@H]2C1 [Oleanolic acid], the IC50 [1, 6] is reported as under 1000 µg/mL and the “Intensity of tyrosinase band” value (tyrosinase [2]) is reported as 200.
In the case of C=C(C)[C@@H]1CC[C@]2(C(=O)O)CC[C@]3(C)[C@H](CC[C@@H]4[C@@]5(C)CC[C@H](O)C(C)(C)[C@@H]5CC[C@]43C)[C@@H]12 [Betulinic acid], the IC50 [1, 6] is reported as under 500 µg/mL and the “Intensity of tyrosinase band” value (tyrosinase [2]) is reported as 170.
In the case of C[C@H]1[C@H](C)CC[C@]2(C(=O)O)CC[C@]3(C)C(=CC[C@@H]4[C@@]5(C)CC[C@H](O)C(C)(C)[C@@H]5CC[C@]43C)[C@H]12 [Ursolic acid], the IC50 [1, 6] is reported as under 500 µg/mL and the “Intensity of tyrosinase band” value (tyrosinase [2]) is reported as 180.
For COc1ccc(CC2COC(=O)C2Cc2ccc(O[C@@H]3O[C@H](CO)[C@@H](O)[C@H](O)[C@H]3O)c(OC)c2)cc1OC (stereo partly shown) [Arctiin, 4-[(3,4-Dimethoxyphenyl)methyl]dihydro-3-[(4-Glucose-3-metoxyphenyl)methyl]-2(3H)-furanone], the “Melanin synthesis inhibition (%)” value ([3]; final concentration 60 □/□) was 67.3%, the “Melanin synthesis inhibition (%)” value ([3]; final concentration 100 □/□) was 78.5% and the “Melanin synthesis inhibition (%)” value ([3]; final concentration 140 □/□) was 80.3%. For the same compound, the “Melanin synthesis inhibition (%)” value ([3]; final concentration 180 □/□) was 84.2%, the “Melanin synthesis inhibition (in words)” value [1] was “most effective” and the “Cell viabilities (range over tested concentrations)” value [4] was 94-100%. For the same compound, the “Toxicity determination on cells” value [4] was “non-toxic”, the “Intensity of tyrosinase band” value (tyrosinase [2]) was 155 and the “Inhibiting effect on biosynthesis of tyrosinase (in words)” value (tyrosinase [2]) was “significantly high inhibiting effects”. The “Strength of tyrosinase band” value (tyrosinase [5]) was 155.
For COc1cc(C[C@H]2COC(=O)[C@@H]2Cc2ccc(O)c(OC)c2)ccc1O [Matairesinol], the IC50 [1, 6] was under 200 µg/mL and the “Intensity of tyrosinase band” value (tyrosinase [2]) was 180.
In the case of COc1cc(CC2C(=O)OCC2Cc2ccc(OC)c(OC)c2)ccc1O (stereo not shown) [Arctigenin, 4-[(3,4-Dimethoxyphenyl)methyl]dihydro-3-[(4-hydroxy-3-metoxyphenyl)methyl]-2(3H)-furanone], the “Melanin synthesis inhibition (%)” value ([3]; final concentration 60 □/□) is reported as 66.8%, the “Melanin synthesis inhibition (%)” value ([3]; final concentration 100 □/□) is reported as 79.6% and the “Melanin synthesis inhibition (%)” value ([3]; final concentration 140 □/□) is reported as 81.3%. The “Melanin synthesis inhibition (%)” value ([3]; final concentration 180 □/□) was 84.3%, the “Melanin synthesis inhibition (in words)” value [1] was “most effective” and the “Toxicity determination on cells” value ([4]; criteria of Table 6) was “non-toxic”. For the same compound, the “Cell viability (%)” value ([4]; final concentration 20 □/□) was 101.2%, the “Cell viability (%)” value ([4]; final concentration 60 □/□) was 101.0% and the “Cell viability (%)” value ([4]; final concentration 100 □/□) was 99.8%. For the same compound, the “Cell viability (%)” value ([4]; final concentration 140 □/□) was 99.6%, the “Cell viability (%)” value ([4]; final concentration 180 □/□) was 99.7% and the “Intensity of tyrosinase band” value (tyrosinase [2]) was 135. The “Inhibiting effect on biosynthesis of tyrosinase (in words)” value (tyrosinase [2]) was “significantly high inhibiting effects” and the “Strength of tyrosinase band” value (tyrosinase [5]) was 135.
